Read-outs that look alike come from different tables or passages of the source.

One assay deals with UT-7 cells (UT7/EPO). The experiment in a line: Cell Proliferation Assay (AlamarBlue), UT-7. It counts as cell-based. The note with it: UT-7 assay, at or below 1000 micromolar compound concentration. On the procedure:
UT-7 and FDC-P1 cell proliferation was assessed by AlamarBlue (BioSource International Inc., Camarillo, Calif. 93012, USA). Briefly, the cells were plated into 96-well Costar cell culture plate (Corning Incorporated, Corning, N.Y. 14831, USA) at 7000 cells/well and 4000 cells/well for UT7/EPO and FDC-P1 cell line, respectively. The test compound and/or vehicle was added to each well with a final concentration of 1% DMSO and incubated in an atmosphere of 5% CO2 at 37° C. for 66 hours. After a further 6 hour incubation in the presence of AlamarBlue, fluorescent intensity was measured using a SpectraMax Gemini (Molecular Devices, Sunnyvale, Calif. 94089, USA) plate reader, with excitation at 530 nm and emission at 590 nm. The Percent Increase=((RFU Test-RFU Medium)/(RFU Vehicle-RFU Medium)-1)*100. Recombinant human EPO (Research Diagnostics, Inc., Flanders, N.J. 07836, USA) was used in the assay as a positive control.

The target of a further assay is receptors for EPO. As to conditions: cited from earlier work.

Take `CC(C)(C)c1ccc(COc2ccc(C[C@H](NC(=O)c3cc(Cl)ccc3NCc3cccc4ccccc34)C(=O)O)cc2)cc1` [Example 4, (2S)-3-[4-(4-tert-butyl-benzyloxy)-phenyl]-2-{5-chloro-2-[(naphthalen-1-ylmethyl)-amino]-benzoylamino}-propionic acid]: the “cell proliferation (Percent Increase)” value in the assay with UT-7 cells (UT7/EPO) is under 20%.

In the case of “EPO: 165 amino acid, 34 kilodalton (kDa) glycoprotein hormone regulating red blood cell production”, the dissociation constant Kd on receptors for EPO (high affinity receptor, read-out: Kd, high affinity receptors for EPO) is 75 to 100 pM; at receptors for EPO (low affinity receptor, read-out: Kd, low affinity receptors for EPO) it was 220 to 800 pM.

As a reminder, the Kd is the equilibrium constant for the complex coming apart.

Values taken from patent US7501538B2, “Aryl and heteroaryl compounds, compositions and methods of use” (TransTech Pharma, Inc., priority 2003, dated 2009).
